Reference: US20240174618A1, “SUBSTITUTED (2-HETEROARYLOXYPHENYL)SULFONATES, SALTS THEREOF AND THEIR USE AS HERBICIDAL AGENTS” (Bayer Aktiengesellschaft, priority 2021, published 2024)

Columns and labels:
Format in all cases: in vivo
[1] = test system: Digitaria sanguinalis (DIGSA); assay: C. Herbicidal pre-emergence efficacy, DIGSA; details: scored after about 3 weeks
Method in brief: (§1)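 Pre-emergence test: formulated compounds sprayed as aqueous suspension or emulsion with 0.5% additive at 600 l/ha onto soil covering sown seeds, at rates corresponding to 320 g/ha or less. After about 3 weeks in greenhouse, efficacy scored visually as percent versus untreated controls (100% = plants dead).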

Poa annua (POAAN) = assay: B. Herbicidal post-emergence efficacy, POAAN
Method in brief: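 First, seeds were sown in sandy loam and grown 2 to 3 weeks under controlled greenhouse conditions. Next, foliage at the one-leaf stage received the formulated compound in water with 0.5% additive (600 L/ha, 1280 g/ha or less). Finally, damage was rated visually after about 3 weeks against untreated plants.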

[2] = test system: Abutilon theophrasti (ABUTH); assay: A. Herbicidal pre-emergence efficacy, ABUTH; details: scored visually after about 3 weeks vs untreated controls
Method in brief: (§2)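 Applied before emergence onto covering soil at rates of 1280 g/ha or less, using 600 L/ha spray water with 0.5% additive. Scoring: visual % efficacy after ~3 weeks, greenhouse.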

[3] = test system: Abutilon theophrasti (ABUTH); assay: E. Herbicidal post-emergence efficacy, ABUTH
Method in brief: (§3)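 Compounds applied at 320 g/ha or less as a foliar spray (600 l/ha, 0.5% additive) to one-leaf-stage greenhouse plants grown in sandy loam. Damage is visually scored in percent relative to untreated plants after about 3 weeks.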

[4] = test system: Echinochloa crus-galli (ECHCG); assay: E. Herbicidal post-emergence efficacy, ECHCG
Method in brief: as §3

[5] = test system: Amaranthus retroflexus (AMARE); assay: A. Herbicidal pre-emergence efficacy, AMARE
Method in brief: as §2

Kochia scoparia (KCHSC) = assay: C. Herbicidal pre-emergence efficacy, KCHSC
Method in brief: as §1

[6] = test system: Polygonum convolvulus (POLCO); assay: E. Herbicidal post-emergence efficacy, POLCO
Method in brief: as §3

SMILES	Pre-emergence efficacy against DIGSA ([1]; 80 g/ha) [%]	Pre-emergence efficacy against DIGSA ([1]; 320 g/ha) [%]	Post-emergence efficacy against POAAN (Poa annua (POAAN); 1280 g/ha) [%]	Pre-emergence efficacy against ABUTH ([2]; 80 g/ha) [%]	Pre-emergence efficacy against ABUTH ([2]; 320 g/ha) [%]	Pre-emergence efficacy against ABUTH ([2]; 1280 g/ha) [%]	Post-emergence efficacy against ABUTH in % ([3]; application rate 320 g/ha) [%]	Post-emergence efficacy against ECHCG in % ([4]; application rate 320 g/ha) [%]	Pre-emergence efficacy against AMARE in % ([5]; 80 g/ha) [%]	Pre-emergence efficacy against AMARE in % ([5]; 320 g/ha) [%]	Pre-emergence efficacy against AMARE in % ([5]; 1280 g/ha) [%]	Pre-emergence efficacy against KCHSC in % (Kochia scoparia (KCHSC); application rate 80 g/ha) [%]	Pre-emergence efficacy against KCHSC in % (Kochia scoparia (KCHSC); application rate 320 g/ha) [%]	Post-emergence efficacy against POLCO in % ([6]; application rate 80 g/ha) [%]	Post-emergence efficacy against POLCO in % ([6]; application rate 320 g/ha) [%]	Post-emergence efficacy against POAAN (Poa annua (POAAN); 320 g/ha) [%]	Post-emergence efficacy against ABUTH in % ([3]; application rate 80 g/ha) [%]	Post-emergence efficacy against ECHCG in % ([4]; application rate 80 g/ha) [%]	Post-emergence efficacy against POAAN (Poa annua (POAAN); 80 g/ha) [%]
O=S(=O)(CCC(F)(F)F)Oc1c(Cl)cccc1Oc1ncc(Cl)cn1 [Example I-38]	100	100	90	100	100	100	100	100	100	100	100	100	100	100	100				
O=S(=O)(CCCC(F)(F)F)Oc1c(Cl)cccc1Oc1ncc(Cl)cn1 [Example I-39]	100	100	90	90	100	100	100	100	100	100	100	100	100		100	90	80	90	
O=S(=O)(CCC(F)(F)F)Oc1c(F)cccc1Oc1ncc(Br)cn1 [Example I-40]	100	100	90	100	100	100	100	100	100	100	100	100	100	100	100	90	90	100	
O=S(=O)(CCCC(F)(F)F)Oc1c(F)cccc1Oc1ncc(Br)cn1 [Example I-41]	100	100	90		100	100	100	100	100	100	100	100	100	100	100	90	90	90	
O=S(=O)(CCC(F)(F)F)Oc1c(F)cccc1Oc1ncc(Cl)cn1 [Example I-48]	100	100	90	90	100	100	100	100	90	90	100	100	100	100	100	90	90	100	90
O=S(=O)(CCCC(F)(F)F)Oc1c(F)cccc1Oc1ncc(Cl)cn1 [Example I-49]	100	100	90	100	100	100	80	100	90	100	100	100	100	100	100		80	100	
O=S(=O)(CC1CC(F)(F)C1)Oc1c(F)cccc1Oc1ncc(Cl)cn1 [Example I-53]	100	100	90	100	100	100	100	100	100	100	100	100	100	100	100	90	100	100	90
O=S(=O)(CCC1CC1)Oc1c(F)cccc1Oc1ncc(Cl)cn1 [Example I-55]	100	100	90			100	100	100	100	100	100	80	100	90	100	90		90	
O=S(=O)(CCCC(F)F)Oc1c(F)cccc1Oc1ncc(Cl)cn1 [Example I-56]	100	100	90	100	100	100	100	100	100	100	100	100	100		100	90		80	90
O=S(=O)(CCCC(F)(F)C(F)(F)F)Oc1c(F)cccc1Oc1ncc(Cl)cn1 [Example I-68]	100	100	100			100	90	90		100	100	100	100	80	90	90			
